Legend:
[1] = test system: weiblichen Ratten; assay: Abortive effect in an early phase post nidationem (Experiment I), treatment d 5-7 p.c., s.c.; assay type: in vivo; conditions: frühgravide Ratte; for Abortrate: Dosierungen ≧ 1,0 mg/d, absence of implants at d 9 p.c. counted as abortion
From the text: (§1) Zur Kennzeichnung der antigestagenen Wirkung der erfindungsgemässen Verbindungen wurde die abortive Wirkung in einer frühen Phase post nidationem (Experiment I) und in einer fortgeschrittenen Phase post nidationem (Experiment II) untersucht.
(§2) Die Versuche wurden an weiblichen Ratten im Gewicht von ca. 200 g durchgeführt. Nach erfolgter Anpaarung wurde der Schwangerschaftsbeginn durch Nachweis von Spermien in Vaginalabstrichen gesichert. Der Tag des Spermiennachweises gilt als Tag 1 der Gravidität (= d 1 p.c.).
(§3) Die Behandlung der Tiere mit der jeweils zu testenden Substanz bzw. dem Lösungsmittel erfolgte nach der Nidation der Blastocysten von d 5 p.c. bis d 7 p.c. (Experiment I) bzw. d 13 p.c. bis d 15 p.c. (Experiment II). An d 9 p.c. bzw. d 17 p.c. wurden die Tiere getötet und die Uteri auf Implantate und Resorptionsstellen hin untersucht. Von allen Uteri wurden Fotos angefertigt. Das Fehlen von Implantaten wurde als Abort gewertet.
(§4) Als Antigestagene wurden untersucht: • A: 11β-(4-Dimethylaminophenyl)-17β-hydroxy- 17a-propinyl-4,9-estradien-3-on (Referenzsubstanz). • B: 11 β-(4-Dimethylaminophenyl)-17β-hydroxy-17a- (3-hydroxypropyl)-13a-methyl-4,9-go- nadien-3-on (gemäss Erfindung). • C: 11β-(4-Dimethylaminophenyl)-17α-hydroxy-17ß- (3-hydroxypropyl)-13a-methyl-4,9-go- nadien-3-on (gemäss Erfindung).
Die Testsubstanzen wurden in einem Benzylbenzoat-Rizinusöl-Gemisch (Verhältnis 1:4) gelöst. Das Vehikelvolumen pro Einzeldosis betrug 0,2 ml. Die Behandlung erfolgte subcutan (s.c.). [drawing 1] worin [drawing 2] mit R^1 und R" in der Bedeutung von Wasserstoff oder Alkyl mit 1 bis 4 Kohlenstoffatomen oder R^I und R" unter Einschluss von N in der Bedeutung eines gesättigten 5- oder 6-gliedrigen Ringes, wobei im Ring ausser N noch ein weiteres Heteroatom wie 0, N, S enthalten sein kann, sowie die entsprechenden tertiären N-Oxide und die Säureadditionssalze, • -OR^III mit R"' in der Bedeutung von Methyl, Ethyl, Propyl, Methoxyphenyl, Allyl oder β-Dimethylaminoethyl, • R^2 ein Wasserstoffatom, eine Methyl- oder Ethylgruppe, • R^3-(CH2)n-CH3 mit n=0-4, • -(CH2)n-CH2-O(S)R^IV mit n=0-4 und R^IV in der Bedeutung von Wasserstoff oder Alkyl mit 1 bis 4 Kohlenstoffatomen, • -CH=CH-(CH2)n-OR^V mit n=1-4 und R^V in der Bedeutung von Wasserstoff, Alkyl oder Alkanoyl mit jeweils 1 bis 4 Kohlenstoffatomen, • -C≡C-X mit X in der Bedeutung von Wasserstoff, Alkyl mit 1 bis 4 Kohlenstoffatomen oder Halogen, • -(CH2)n-CH2CN mit n=0-3 oder [drawing 3] Y mit Y in der Bedeutung von Wasserstoff oder OR^v mit R^V in der oben angegebenen Bedeutung, • R^4 Hydroxy, Alkyloxy oder Alkanoyloxy mit jeweils 1 bis 4 Kohlenstoffatomen oder R^3/R4 [drawing 4] wobei R^3 in a-Stellung und R^4 in β-Stellung oder R^3 in β-Stellung und R^4 in a-Stellung zum Steroidgerüst stehen, und • R^5 ein Wasserstoffatom oder eine a- oder β-ständige Alkylgruppe mit 1 bis 4 Kohlenstoffatomen bedeuten. […]

[2] = test system: weiblichen Ratten; assay: Abortive effect in an advanced phase post nidationem (Experiment II), treatment d 13-15 p.c., s.c.; assay type: in vivo; conditions: 3-day s.c. administration of 3,0 mg/d, rat
From the text: as §1, §2, §3, §4
Die Testsubstanzen wurden in einem Benzylbenzoat-Rizinusöl-Gemisch (Verhältnis 1:4) gelöst. Das Vehikelvolumen pro Einzeldosis betrug 0,2 ml. Die Behandlung erfolgte subcutan (s.c.). […]

Row | SMILES | Dosierung für voll abortive / maximale abortauslösende (antigestagene) Wirkung [1] | Prozentsatz kompletter Aborte [2] | Abortrate [1]
1 | CC#C[C@]1(O)CC[C@H]2[C@@H]3CCC4=CC(=O)CCC4=C3[C@@H](c3ccc(N(C)C)cc3)C[C@@]21C [A, 11β-(4-Dimethylaminophenyl)-17β-hydroxy-17a-propinyl-4,9-estradien-3-on, reference compound] | > 3,0 mg/d | 3,5% | –
2 | CN(C)c1ccc([C@H]2C[C@]3(C)[C@@H](CC[C@]3(O)CCCO)[C@@H]3CCC4=CC(=O)CCC4=C32)cc1 [C, 11β-(4-Dimethylaminophenyl)-17α-hydroxy-17ß-(3-hydroxypropyl)-13a-methyl-4,9-go-nadien-3-on] | ≥ 1,0 mg/d | 52,3% | 4/4
3 | CN(C)c1ccc([C@H]2C[C@]3(C)[C@@H](CC[C@@]3(O)CCCO)[C@@H]3CCC4=CC(=O)CCC4=C32)cc1 [B, 11 β-(4-Dimethylaminophenyl)-17β-hydroxy-17a-(3-hydroxypropyl)-13a-methyl-4,9-go-nadien-3-on] | ≥ 1,0 mg/d | 35,4% | 4/4
